Reference: patent publication US11006631B2, “Substituted pyrimidinyloxy pyridine derivatives as herbicides” (FMC Corporation, priority 2015, dated 2021)

What was measured:
Format in all cases: in vivo
corn (Zea mays) = assay: Test A postemergence, corn; conditions: 0 to 100 scale
Outline: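 Test chemicals in solvent with surfactant applied preemergence as directed soil spray, or postemergence to plants at one- to two-leaf stage (2–10 cm), in loam–sand soil. Injury visually rated versus untreated controls after about 10 days in greenhouse, on a 0 (no effect) to 100 (complete control) scale.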

[1] = system: wheat (winter wheat, Triticum aestivum); assay: Test C postemergence, wheat
Description: Seeds of plant species selected from blackgrass (Alopecurus myosuroides), ryegrass, Italian (Italian ryegrass, Lolium multiflorum), wheat (winter wheat, Triticum aestivum), galium (catchweed bedstraw, Galium aparine), corn (Zea mays), crabgrass, large (large crabgrass, Digitaria sanguinalis), foxtail, giant (giant foxtail, Setaria faberii), lambsquarters (Chenopodium album), morningglory (Ipomoea coccinea), nutsedge, yellow (yellow nutsedge, Cyperus esculentus), pigweed (Amaranthus retroflexus), johnsongrass (Sorghum halepense), ragweed (common ragweed, Ambrosia elatior), soybean (Glycine max), barnyardgrass (Echinochloa crus-galli), oilseed rape (Brassica napus), waterhemp (common waterhemp, Amaranthus rudis), chickweed (common chickweed, Stellaria media), oat, wild (wild oat, Avena fatua), kochia (Kochia scoparia), and velvetleaf (Abutilon theophrasti) were planted in pots containing Redi-Earth® planting medium (Scotts Company, 14111 Scottslawn Road, Marysville, Ohio 43041) comprising spaghnum peat moss, vermiculite, wetting agent and starter nutrients and treated with postemergence applications of a test chemical formulated in a non-phytotoxic solvent mixture which included a surfactant. […] Treated plants and controls were maintained in a greenhouse for 13 to 15 days, after which time all species were compared to controls and visually evaluated. […]

[2] = system: pigweed (Amaranthus retroflexus); assay: Test C postemergence, pigweed
Description: Seeds of plant species selected from blackgrass (Alopecurus myosuroides), ryegrass, Italian (Italian ryegrass, Lolium multiflorum), wheat (winter wheat, Triticum aestivum), galium (catchweed bedstraw, Galium aparine), corn (Zea mays), crabgrass, large (large crabgrass, Digitaria sanguinalis), foxtail, giant (giant foxtail, Setaria faberii), lambsquarters (Chenopodium album), morningglory (Ipomoea coccinea), nutsedge, yellow (yellow nutsedge, Cyperus esculentus), pigweed (Amaranthus retroflexus), johnsongrass (Sorghum halepense), ragweed (common ragweed, Ambrosia elatior), soybean (Glycine max), barnyardgrass (Echinochloa crus-galli), oilseed rape (Brassica napus), waterhemp (common waterhemp, Amaranthus rudis), chickweed (common chickweed, Stellaria media), oat, wild (wild oat, Avena fatua), kochia (Kochia scoparia), and velvetleaf (Abutilon theophrasti) were planted in pots containing Redi-Earth® planting medium (Scotts Company, 14111 Scottslawn Road, Marysville, Ohio 43041) comprising spaghnum peat moss, vermiculite, wetting agent and starter nutrients and treated with postemergence applications of a test chemical formulated in a non-phytotoxic solvent mixture which included a surfactant. Plants ranged in height from 2 to 18 cm (1- to 4-leaf stage) for postemergence treatments. Treated plants and controls were maintained in a greenhouse for 13 to 15 days, after which time all species were compared to controls and visually evaluated. Plant response ratings, summarized in Table C, are based on a scale of 0 to 100 where 0 is no effect and 100 is complete control. A dash (-) response means no test result.

[3] = system: barnyardgrass (Echinochloa crus-galli); assay: Test B flooded paddy test, barnyardgrass; conditions: Flood, 250 g ai/ha; scale of 0 to 100
Outline: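 In-water application to pots flooded 3 cm deep, plants at 2-leaf stage. Held in greenhouse 13–15 days at constant flood depth. Scored 0–100 by eye against controls.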

## FC(F)c1cc(-c2ncccc2Oc2ncc(Cl)cn2)on1 [Compound 5, 5-chloro-2-[[2-[3-(difluoromethyl)-5-isoxazolyl]-3-pyridinyl]oxy]pyrimidine]
Corn (Zea mays); 31 g ai/ha
  Plant response rating, Corn: 0
Corn (Zea mays); 125 g ai/ha
  Plant response rating, Corn: 10
[1]; 16 g ai/ha
  Plant response rating, Wheat: 5
[1]; 31 g ai/ha
  Plant response rating, Wheat: 5
[2]; 16 g ai/ha
  Plant response rating, Pigweed: 65
[2]; 31 g ai/ha
  Plant response rating, Pigweed: 75
[2]; 62 g ai/ha
  Plant response rating, Pigweed: 75
[2]; 125 g ai/ha
  Plant response rating, Pigweed: 85
[3]
  Plant response rating, Barnyardgrass: 0
